These results are taken from paper PMC9321647, “Curcumin-Based β-Diketo Ligands for Ga^3+: Thermodynamic Investigation of Potential Metal-Based Drugs” (Pharmaceuticals, 2022).

Assay type in all cases: physicochemical
Data set [1] in a line: Kinetic stability of ligands in simulated physiological conditions (UV-Vis). The note with it: for Stability: percentage of the residual ligand after 4 h: PBS, pH 7.4, 37 °C in darkness; for Stability ranking (residual ligand after 4 h): rank among the 7 ligands, 1 = most stable. The method, then:
The chemical stability of ligands and metal complexes at the M:L 1:L molar ratio at 37 °C in darkness was evaluated by UV−Vis spectroscopy as a change in absorbance in the 250−600 nm range over an overall period of 8 h. Solutions (5.0 × 10^–5 mol L^–1) of the ligands were prepared in 0.1 mol L^–1 phosphate-buffered solution (PBS) at pH 7.4. Spectra were recorded every 30 min. All profiles were linearized as the hyperbolic function defined by Equation (2), which represents an empirical model that describes drug decomposition or release well [42]:(2) t/f%=at+b where f% is the percentage of the residual compound at time t (min) referred to the starting concentration at time zero determined by reading the absorbance at λmax.

Data set [2] is described as follows: Keto-enol/diketo tautomer amounts by 1H NMR. The following applies: molar percentage, MeOD-d4, 298 K; for KE (%) amount of keto–enol form: for 2 includes KE form of the Z isomer (6%). On the procedure: NMR spectra were recorded by means of a Bruker Biospin FT-NMR AVANCE III HD (600 MHz) spectrometer equipped with a CryoProbe BBO H&F 5 mm in inverse detection. The nominal frequencies were 150.90 MHz for ^13C and 600.13 MHz for ^1H, respectively. For each sample, 1–5 mg were weighed and diluted up to 0.6 mL with a proper solvent in a 5 mm NMR tube; 90° pulse was calibrated for each sample, and standard NMR parameters were used to achieve quantitative results (relaxation delay, 10 s). Proton and carbon chemical shifts are given in parts per million (ppm) versus external TMS and were determined by reference to the solvent residual signals. Typical 2D homo- and heteronuclear techniques were used for assignment, i.e., ^1H,^1H COSY, ^1H,^13C HSQC, ^1H,^13C HMBC. NMR investigations of Ga^3+:L systems were performed in MeOD-d4 by adding small amounts of a Ga(NO3)3 solution (10 μL each) to 1 mM ligand solution (0.6 mL) until reaching the desired metal-to-ligand molar ratio. The complexation reaction is fast, and spectra were registered few minutes after the addition. Two-dimensional ^1H,^13C heteronuclear multiple bond correlation (HMBC) experiments (hmbcgpndqf in Bruker library) were performed via heteronuclear zero and double quantum coherence, optimized on long-range couplings (^3/4JHC = 8 Hz), with no decoupling during acquisition, and gradient pulses were used for selection. The relative percentages of the isomeric forms were estimated on the basis of the NMR data. Particularly, ^1H NMR spectra were acquired in quantitative conditions being D1 (relaxation delay) at least five times the T1 of the slowest relaxing signal of interest. The raw data were Fourier-transformed, and then the processing was performed by zero filling (SI = TD), line broadening (lb 0.3 Hz), accurate phasing and correcting the baseline. The most isolated signals were selected for integration, i.e., the vinyl protons (H-3 and H-4), and an average of the integrated area (A) of H-3 and H-4 was used for relative quantitation, according to the following equation: %Tautomeri=(A(H−3)i+(A(H−4)i)/2/∑i(A(H−3)i+(A(H−4)i)/2×100

The nature of data set [3]: Spectrophotometric pH titrations of ligands (protonation constants, pKa). The following applies: for logβ011 overall protonation constant / logβ012 overall protonation constant / logβ013 overall protonation constant / logβ014 overall protonation constant: HypSpec, spectrophotometric data; for pKa: aqueous solution (methanol stock diluted in water); for prevailing charge form at physiological pH (7.4): pH 7.4, species distribution. The method, then:
(§1) UV–visible spectra were recorded with a JASCO V-570 UV/Vis/NIR spectrophotometer at 298 K in the 250–600 nm spectral range employing quartz cells (1 cm optical path). To perform spectrophotometric titrations, ligands (denoted generally as L in the following) were dissolved in methanol to give a mother solution (2.50 mM), that was then diluted in water in order to obtain a final concentration of 50 μM. The metal/ligand (M:L) solutions were obtained by adding appropriate quantities of Ga(NO3)3 as methanol solutions (5–10 mM) in order to obtain the metal-to-ligand 1:1 molar ratio (L = 50 μM and V = 25 mL). For both L and M:L systems, pH (initial value of about 5) was varied by adding small amounts (<1 μL) of concentrated NaOH (4 M) up to ca. pH 11, thus to consider volume variations negligible. To evaluate the complexation ratio, constant additions of the M solution (10 µL each time, M = 10^–2 M) were dropped into the ligand solution (V = 25 mL, L = 50 μM) using a micropipette in order to reach different M:L molar ratios. A constant ionic strength (NaNO3, 0.1 M) was maintained in all experiments. Spectrophotometric investigations of iron(III) systems were performed in the same conditions; the Fe^3+ solution was freshly prepared in methanol starting from Fe(NO3)3·9H2O. The overall protonation constants (logβqr) and the overall stability constants of metal complexes (logβpqr) were evaluated from spectrophotometric data. The stability constants (βpqr), defined by the following equations:(3) pM^m++qL^l^−+rH^+⇌MpLqHr(mp−lq+r) (4) βpqr=[MpLqHr(mp−lq+r)]/[M^m+]^p·[L^l−]^q·[H^+]^r where L is the ligand in the completely dissociated form and H is proton, were refined using least-squares calculation in HypSpec. The results of least-squares calculation include the standard deviations and correlation coefficients of the refined parameters. The quantities are obtained by performing error propagation calculation from the experimental errors onto the parameters. The stability constant refinement furnishes least-squares estimates of the standard deviation, σ, of the stability constant β. The error on logβ is calculated as follows: σ(logβ) = [log(β + σ) − log(β − σ)]/2.

Data set [4] can be described thus: Spectrophotometric pH-metric titrations of Ga^3+:ligand systems (stability constants, pGa, speciation). The note with it: for logK11 apparent formation constant (Ga^3+, M:L 1:1) / logK12 apparent formation constant (Ga^3+, M:L 1:2) / logK13 apparent formation constant (Ga^3+, M:L 1:3): estimated from logβMLH; for Prevailing Species (pH 5.5) / Prevailing Species (pH 7.4): Ga^3+ complex species; for Prevailing Species (pH 7.4): ** possible formation of gallium hydroxide species; for pGa (−log[Ga^3+]free): [Ga^3+]total = 1 μM, [L]total = 10 μM, pH 7.4, 25 °C. The method, then:
as §1
Hydroxide species, such as [Ga(OH)2]^+, were taken into account for calculations. The hydrolysis constants for Ga^3+ are as follows: logβ1,1,0 = −3.93; logβ2,1,0 = −7.73; logβ3,1,0 = −12.38; logβ4,1,0 = −15.96; logβ32,13,0 = −66.3; logβ3,1,0(s) = −3.54 [43]; pGa is defined as (−log[Ga^3+]free) and is calculated at specific conditions (Ga^3+total = 1 μM, Ltotal = 10 μM, pH 7.4, 25 °C). For the calculation of the iron(III) overall stability constants, the presence of [Fe(OH)]^2+, [Fe(OH)2]^+ and [Fe(OH)3] species was taken into account.

Setting [5] is: 298 K, calculated from logβ values, * = keto–enol moiety dissociation, read-out: pKa1.
The mark [6] stands for this setting: 298 K, calculated from logβ values, * = keto–enol moiety dissociation, read-out: pKa2.
[7] abbreviates: 298 K, calculated from logβ values, * = keto–enol moiety dissociation, read-out: pKa3.
The mark [8] stands for this setting: 298 K, calculated from logβ values, read-out: pKa4.
Where [9] appears, read: 298 K, calculated from logβ values, * = keto–enol moiety dissociation.

Where two headings read alike, the source gives them in different places. Marks after values point to notes of the source that are not given here.

For `COc1cc(/C=C/C(O)=C/C(C)=O)ccc1OCCCBr` [Compound 2, (3Z,5E)-6-[4-(3-bromopropoxy)-3-methoxyphenyl]-4-hydroxyhexa-3,5-dien-2-one], in data set [1], the “Stability: percentage of the residual ligand after 4 h” value was 83% and the “Stability ranking (residual ligand after 4 h)” value is given as 1. Also, in data set [2], the “KK (%) amount of diketo form” value was 12% and the “KE (%) amount of keto–enol form” value is 88 * %. In data set [3] (298 K), the “logβ011 overall protonation constant” value is 10.903 (8). The pKa in data set [3] (setting [5]) is 10.9. In data set [4] (298 K, HypSpec), the “log β 110 overall stability constant (Ga^3+)” value is recorded as 8.129 (9), the “log β 120 overall stability constant (Ga^3+)” value was 15.185 (4) and the “log β 130 overall stability constant (Ga^3+)” value was 20.45 (3). In data set [4] (298 K), the “logK11 apparent formation constant (Ga^3+, M:L 1:1)” value (from here on “logK11 apparent formation constant”) is recorded as 8.129 (9); the “logK12 apparent formation constant (Ga^3+, M:L 1:2)” value is recorded as 15.185; the “logK13 apparent formation constant (Ga^3+, M:L 1:3)” value is reported as 20.45. Besides, in data set [4], the “Prevailing Species (pH 5.5)” value was “[Ga(L)3]”, the “Prevailing Species (pH 7.4)” value is “[Ga(L)3]” and the “pGa (−log[Ga^3+]free)” value stood at 13.1.
As to `O=C(O)CCC(C(=O)/C=C/c1ccc(O)cc1)C(=O)/C=C/c1ccc(O)cc1` [Compound 6, (6E)-7-(4-hydroxyphenyl)-4-[(2E)-3-(4-hydroxyphenyl)prop-2-enoyl]-5-oxohept-6-enoic acid], in data set [1], the “Stability: percentage of the residual ligand after 4 h” value is given as 73% and the “Stability ranking (residual ligand after 4 h)” value was 4. Moreover, in data set [2], the “KK (%) amount of diketo form” value is on record as 75% and the “KE (%) amount of keto–enol form” value amounted to 25%. In data set [3] (298 K), the “logβ011 overall protonation constant” value is given as 11.42 (2), the “logβ012 overall protonation constant” value was 21.12 (6), the “logβ013 overall protonation constant” value is recorded as 29.76 (7) and the “logβ014 overall protonation constant” value was 34.62 (5). In addition, the pKa in data set [3] (setting [5]) is approximately 5. Also, in data set [3] (setting [6]), the pKa was 8.64. Also, the pKa in data set [3] (setting [7]) is 9.7. Further, the pKa in data set [3] (setting [8]) was 11.4. For the same molecule, in data set [3], the “prevailing charge form at physiological pH (7.4)” value is on record as “negatively charged”. In data set [4] (298 K, HypSpec), the “log β 112 overall stability constant (Ga^3+)” value is 27.79 (5) and the “log β 113 overall stability constant (Ga^3+)” value is reported as 34.09 (5). In addition, the “logK11 apparent formation constant” value in data set [4] (298 K) is 6.67. In addition, in data set [4], the “pGa (−log[Ga^3+]free)” value came to 14.0.
As to `COc1cc(/C=C/C(=O)C(CCC(=O)O)C(=O)/C=C/c2ccc(O)c(OC)c2)ccc1O` [Compound 7, (6E)-7-(3-methoxy-4-hydroxyphenyl)-4-[(2E)-3-(3-methoxy-4-hydroxyphenyl)prop-2-enoyl]-5-oxohept-6-enoic acid], in data set [1], the “Stability: percentage of the residual ligand after 4 h” value is 79% and the “Stability ranking (residual ligand after 4 h)” value is recorded as 2. Moreover, in data set [2], the “KK (%) amount of diketo form” value came to 75% and the “KE (%) amount of keto–enol form” value was determined as 25%. In data set [3] (298 K), the “logβ011 overall protonation constant” value is given as 12.22 (2), the “logβ012 overall protonation constant” value is recorded as 21.61 (5), the “logβ013 overall protonation constant” value is 29.98 (4) and the “logβ014 overall protonation constant” value was 34.92 (9). The pKa in data set [3] (setting [5]) was approximately 5. Moreover, the pKa in data set [3] (setting [6]) is 8.37. Moreover, the pKa in data set [3] (setting [7]) was 9.39. Besides, in data set [3] (setting [8]), the pKa was 12.2. Further, in data set [3], the “prevailing charge form at physiological pH (7.4)” value is reported as “negatively charged”. Further, in data set [4] (298 K, HypSpec), the “log β 112 overall stability constant (Ga^3+)” value was 28.29 (5) and the “log β 113 overall stability constant (Ga^3+)” value is given as 36.51 (6). Further, the “logK11 apparent formation constant” value in data set [4] (298 K) was 6.68. Also, in data set [4], the “Prevailing Species (pH 5.5)” value was “[Ga(H2L)2]^+”, the “Prevailing Species (pH 7.4)” value was “[Ga(H2L)2]^+ **” and the “pGa (−log[Ga^3+]free)” value amounted to 15.3.
As for “(3Z,5E)-4-hydroxy-6-(3-methoxy-4-methylphenyl)hexa-3,5-dien-2-one [Compound 1]”, in data set [1], the “Stability: percentage of the residual ligand after 4 h” value was 77% and the “Stability ranking (residual ligand after 4 h)” value is reported as 3. For the same molecule, in data set [2], the “KK (%) amount of diketo form” value is on record as 4% and the “KE (%) amount of keto–enol form” value is on record as 96%. In addition, in data set [3] (298 K), the “logβ011 overall protonation constant” value was 10.212 (2) and the “logβ012 overall protonation constant” value is reported as 18.509 (3). Also, in data set [3] (setting [9]), the pKa1 is recorded as 8.297 (5) and the pKa2 is listed as 10.212 (2) *. Moreover, in data set [4] (298 K, HypSpec), the “log β 110 overall stability constant (Ga^3+)” value is recorded as 11.78 (4), the “log β 111 overall stability constant (Ga^3+)” value is on record as 17.59 (3), the “log β 120 overall stability constant (Ga^3+)” value is 20.30 (5) and the “log β 122 overall stability constant (Ga^3+)” value was 34.77(3). In data set [4] (298 K, HypSpec), the “log β 130 overall stability constant (Ga^3+)” value is 28.37 (7) and the “log β 133 overall stability constant (Ga^3+)” value is 49.7 (4). In data set [4] (298 K), the “logK11 apparent formation constant” value was 7.38 (3); the “logK12 apparent formation constant (Ga^3+, M:L 1:2)” value is listed as 14.35 (3); the “logK13 apparent formation constant (Ga^3+, M:L 1:3)” value is 19.1 (4). In data set [4], the “Prevailing Species (pH 5.5)” value is “[Ga(HL)3]”, the “Prevailing Species (pH 7.4)” value was “[Ga(L)3]^3−” and the “pGa (−log[Ga^3+]free)” value is given as 19.0.
